Assay results: the NIST ThermoML archive (doi:10.1016/j.jct.2007.11.001)
“And” between values parts separate entries of the source, which are not always exact repeats. Equal entries are not always repeated.

Assay: molar heat capacity at constant pressure
Settings: 101.33 kPa, Crystal 1, Small (less than 1 g) adiabatic calorimetry

O=P([O-])([O-])[O-].[Cs+].[Mg+2] [caesium-magnesium monophosphate]
Settings	molar heat capacity at constant pressure
292.8 K	121 J/K/mol
294.9 K	121.5 J/K/mol
297 K	121.9 J/K/mol
298.15 K	122.1 J/K/mol
298.84 K	122.3 J/K/mol
300 K	122.6 J/K/mol
300.7 K	122.7 J/K/mol
303.3 K	123.3 J/K/mol
305.9 K	123.9 J/K/mol
308 K	124.4 J/K/mol
310 K	124.8 J/K/mol
310.1 K	124.8 J/K/mol
312.4 K	125.4 J/K/mol
314.7 K	125.9 J/K/mol
316.4 K	126.2 J/K/mol
318 K	126.5 J/K/mol
320 K	127 J/K/mol
321.1 K	127.2 J/K/mol
324.2 K	128 J/K/mol
325.3 K	128.2 J/K/mol
326.4 K	128.5 J/K/mol
329.66 K	129.1 J/K/mol
330 K	129.2 J/K/mol
330.5 K	128.9 J/K/mol
332.91 K	129.7 J/K/mol
333.99 K	129.9 J/K/mol
334.4 K	129.7 J/K/mol
335.08 K	130.1 J/K/mol
338.2 K	130.6 J/K/mol
338.3 K	130.5 J/K/mol
340 K	131 J/K/mol
341.8 K	131.2 J/K/mol
342.2 K	131.4 J/K/mol
343.4 K	131.5 J/K/mol
345.83 K	132 J/K/mol
346.1 K	132.2 J/K/mol
348.25 K	132.5 J/K/mol
350 K	133 J/K/mol and 132.7 J/K/mol
350.05 K	132.7 J/K/mol
351.85 K	133 J/K/mol
353.9 K	133 J/K/mol
357.8 K	133.9 J/K/mol
360 K	135 J/K/mol
361.7 K	134.7 J/K/mol
365.5 K	135.5 J/K/mol
369.2 K	136.4 J/K/mol
370 K	136 J/K/mol
372.9 K	136.4 J/K/mol
376.6 K	137.2 J/K/mol
380 K	138 J/K/mol
380.2 K	138 J/K/mol
383.7 K	138 J/K/mol
387.2 K	138.9 J/K/mol
390 K	140 J/K/mol
390.7 K	139.7 J/K/mol
394.2 K	140.5 J/K/mol
397.7 K	140.5 J/K/mol
400 K	141 J/K/mol
401.3 K	141.3 J/K/mol
404.8 K	141.3 J/K/mol
408.5 K	142.2 J/K/mol
410 K	142 J/K/mol
412.1 K	143 J/K/mol
415.8 K	143 J/K/mol
419.6 K	143.8 J/K/mol
420 K	144 J/K/mol
423.3 K	144.7 J/K/mol
427 K	145.5 J/K/mol
430 K	146 J/K/mol
430.6 K	145.5 J/K/mol
434.3 K	146.3 J/K/mol
437.9 K	146.3 J/K/mol
440 K	147 J/K/mol
441.6 K	147.2 J/K/mol
445.2 K	148 J/K/mol
448.8 K	148 J/K/mol
450 K	148 J/K/mol
452.5 K	148.8 J/K/mol
456.1 K	148.8 J/K/mol
459.8 K	149.7 J/K/mol
460 K	150 J/K/mol
463.4 K	150.5 J/K/mol
467.1 K	150.5 J/K/mol
470 K	151 J/K/mol
470.7 K	151.3 J/K/mol
474.4 K	151.3 J/K/mol
478.1 K	152.2 J/K/mol
480 K	152 J/K/mol
481.8 K	152.2 J/K/mol
485.4 K	153 J/K/mol
489.1 K	153.8 J/K/mol
490 K	154 J/K/mol
492.7 K	153.8 J/K/mol
496.4 K	154.6 J/K/mol
500 K	154.6 J/K/mol and 155 J/K/mol
503.7 K	155.5 J/K/mol
507.3 K	155.5 J/K/mol
510 K	156 J/K/mol
511 K	156.3 J/K/mol
514.6 K	156.3 J/K/mol
518.3 K	157.1 J/K/mol
520 K	157 J/K/mol
521.8 K	157.1 J/K/mol
525.4 K	158 J/K/mol
529 K	158 J/K/mol
530 K	159 J/K/mol
532.6 K	158.8 J/K/mol
536.1 K	158.8 J/K/mol
539.8 K	159.6 J/K/mol
540 K	160 J/K/mol
543.3 K	159.6 J/K/mol
546.9 K	160.5 J/K/mol
550 K	160 J/K/mol
550.5 K	160.5 J/K/mol
554.1 K	161.3 J/K/mol
557.7 K	161.3 J/K/mol
560 K	162 J/K/mol
561.4 K	162.1 J/K/mol
565 K	162.1 J/K/mol
568.7 K	163 J/K/mol
570 K	163 J/K/mol
572.4 K	163 J/K/mol
576.1 K	163.8 J/K/mol
579.8 K	163.8 J/K/mol
580 K	164 J/K/mol
583.4 K	164.6 J/K/mol
587.1 K	164.6 J/K/mol
590 K	165 J/K/mol
590.7 K	165.5 J/K/mol
594.3 K	165.5 J/K/mol
597.9 K	166.3 J/K/mol
600 K	166 J/K/mol
603.4 K	166.3 J/K/mol
607 K	167.1 J/K/mol
610 K	167 J/K/mol
610.6 K	167.1 J/K/mol
614.2 K	168 J/K/mol
617.7 K	168 J/K/mol
620 K	168 J/K/mol
621.4 K	168 J/K/mol
625 K	168.8 J/K/mol
628.6 K	168.8 J/K/mol
630 K	169 J/K/mol
632.3 K	169.6 J/K/mol
636 K	169.6 J/K/mol
639.7 K	170.4 J/K/mol
640 K	170 J/K/mol
643.3 K	170.4 J/K/mol
648.9 K	171.3 J/K/mol
650 K	171 J/K/mol
